# How the values were obtained:
# Rattus norvegicus [1] = assay: Antipsychotic activity in ip dosed Sprague-Dawley rat assessed as inhibition of amphetamine-induced stereotyped-behavior administered 15 mins post amphetamine-challenge measured for 4 hrs; type: functional; conditions: for minimal effective dose: read-out: MED
# Rattus norvegicus [2] = assay: Antipsychotic activity in ip dosed Sprague-Dawley rat assessed as suppression of conditioned avoidance response after 30 mins; type: functional
# Rattus norvegicus [3] = assay: Antipsychotic activity in ip dosed Sprague-Dawley rat assessed as protection against epinephrine-induced mortality administered 1 hr prior to epinephrine-challenge measured up to 24 hrs; type: functional
# Rattus norvegicus [4] = species: Rattus norvegicus; assay: Toxicity in Sprague-Dawley rat assessed as catalepsy at 10 times MED after 1 to 24 hrs relative to control; type: organism-based; conditions: in vivo
# Rattus norvegicus [5] = species: Rattus norvegicus; assay: Toxicity in Sprague-Dawley rat assessed as catalepsy at 10 times MED assessed as time required to reach peak effect; type: organism-based; conditions: in vivo
# Rattus norvegicus [6] = assay: Relative adrenolytic potency, ratio of ED50 for protection against epinephrine-induced mortality in ip dosed Sprague-Dawley rat to MED for suppression of conditioned avoidance response in ip dosed Sprague-Dawley rat; type: functional
# Rattus norvegicus [7] = assay: Ratio of MED for inhibition of amphetamine-induced stereotyped-behavior in ip dosed Sprague-Dawley rat to ED50 for suppression of conditioned avoidance response in ip dosed Sprague-Dawley rat; type: functional
Molecule,inhibition (Rattus norvegicus [1]),minimal effective dose (Rattus norvegicus [1]) [mg/kg],ED50 (Rattus norvegicus [2]; 0.5 h) [mg/kg],ED50 (Rattus norvegicus [3]) [mg/kg],%max (Rattus norvegicus [4]) [%],Time (Rattus norvegicus [5]) [h],Ratio (Rattus norvegicus [6]),Ratio (Rattus norvegicus [7]),MED (Rattus norvegicus [1]) [mg/kg],ED50 (Rattus norvegicus [2]) [mg/kg]
Cl.O[C@]1(c2ccccc2Cl)CCN2C[C@@H]3c4ccccc4CCc4cccc(c43)[C@H]2C1 (racemic),Dose-dependent effect,2.5,3.3,11,100,4,4.4,–,–,–
Cl.O[C@]1(c2cccnc2)CCN2C[C@@H]3c4ccccc4CCc4cccc(c43)[C@H]2C1 (racemic),Dose-dependent effect,5,1,4.7,94,4,0.94,–,–,–
Cl.O[C@]1(c2ccccc2C(F)(F)F)CCN2C[C@@H]3c4ccccc4CCc4cccc(c43)[C@H]2C1 (racemic),Dose-dependent effect,10,22.2,> 20,100,6,>2,0.45,–,–
Cl.O[C@]1(c2cccc(F)c2)CCN2C[C@@H]3c4ccccc4CCc4cccc(c43)[C@H]2C1 (racemic),Dose-dependent effect,5,7,14.3,100,4,2.9,–,–,–
Cl.O[C@]1(c2ccc(Br)cc2)CCN2C[C@@H]3c4ccccc4CCc4cccc(c43)[C@H]2C1 (racemic),Dose-dependent effect,20,14,6.9,72,4,0.35,–,–,–
COc1cccc([C@@]2(O)CCN3C[C@@H]4c5ccccc5CCc5cccc(c54)[C@H]3C2)c1.Cl (racemic),Dose-dependent effect,1.25,1.4,2.7,83,6,2.2,–,–,–
Cl.O[C@]1(c2cccs2)CCN2C[C@@H]3c4ccccc4CCc4cccc(c43)[C@H]2C1 (racemic),Dose-dependent effect,2.5,5.6,22,100,6,8.8,0.45,–,–
Cl.O[C@]1(Cc2ccccc2)CCN2C[C@@H]3c4ccccc4CCc4cccc(c43)[C@H]2C1 (racemic),Dose-dependent effect,> 20,–,> 40,–,–,–,–,–,–
COc1ccc([C@@]2(O)CCN3C[C@@H]4c5ccccc5CCc5cccc(c54)[C@H]3C2)c(OC)c1.Cl (racemic),Dose-dependent effect,10,16,18,44,6,1.8,–,–,–
Cc1ccccc1[C@@]1(O)CCN2C[C@@H]3c4ccccc4CCc4cccc(c43)[C@H]2C1.Cl (racemic),Dose-dependent effect,1.25,3.3,6.4,61,4,5.1,0.38,–,–
O=C(CCCN1CCC(O)(c2ccc(Cl)cc2)CC1)c1ccc(F)cc1 [HALOPERIDOL],–,–,–,–,–,–,–,1,–,–
COc1ccc([C@@]2(O)CCN3C[C@@H]4c5ccccc5CCc5cccc(c54)[C@H]3C2)cc1.Cl (racemic),Dose-dependent effect,2.5,5.8,13.2,83,6,5.3,0.43,–,–
COc1ccccc1[C@@]1(O)CCN2C[C@@H]3c4ccccc4CCc4cccc(c43)[C@H]2C1.Cl (racemic),Dose-dependent effect,0.63,0.92,4,89,4,6.3,–,–,–
Cl.O[C@]1(c2ccsc2)CCN2C[C@@H]3c4ccccc4CCc4cccc(c43)[C@H]2C1 (racemic),Dose-dependent effect,5,8,90,93,6,18,–,–,–
COc1ccc([C@@]2(O)CCN3C[C@@H]4c5ccccc5CCc5cccc(c54)[C@H]3C2)cc1OC.Cl (racemic),Dose-dependent effect,5,6,1.1,100,4,0.22,–,–,–
Butaclamol,–,–,–,15,–,–,24,1,0.63,0.64
CSc1ccc2c(c1)N(CCC1CCCCN1C)c1ccccc1S2 (stereo unspecified) [THIORIDAZINE],–,–,–,–,–,–,–,1,–,–
Cl.O[C@]1(c2ccco2)CCN2C[C@@H]3c4ccccc4CCc4cccc(c43)[C@H]2C1 (racemic),Dose-dependent effect,5,6.7,82,83,4,16.4,–,–,–
Cl.O[C@]1(c2ccccc2)CCN2C[C@@H]3c4ccccc4CCc4cccc(c43)[C@H]2C1 (racemic),Dose-dependent effect,2.5,3,5.5,32,6,2.2,–,–,–
OCCN1CCN(CCCN2c3ccccc3Sc3ccc(C(F)(F)F)cc32)CC1 [FLUPHENAZINE],–,–,–,–,–,–,–,1,–,–
CN(C)CCCN1c2ccccc2Sc2ccc(Cl)cc21 [CHLORPROMAZINE],–,–,–,–,–,–,–,1,–,–

# Source: ChEMBL document CHEMBL3244311, “Neuroleptics related to butaclamol. Synthesis and some psychopharmacological effects of a series of 3-aryl analogues” (J Med Chem, 1978)
